This note sets out measurements from US7563921B2, “2-cyano-3(halo)alkoxy-benzenesulfonamide compounds for combating animal pests” (BASF Aktiengesellschaft, priority 2004, dated 2009).

A value given as a limit tells only on which side of the number the result lay.

For assay [1], the system named is Green Peach Aphid (Myzus persicae). Put plainly: Green Peach Aphid foliar dip test on pepper plants. Type of assay: in vivo. The conditions noted are these: 120 h, pepper plant leaves dipped, aphid mortality after 5 days, read-out: mortality in comparison with untreated controls. An excerpt: Green Peach Aphid (Myzus persicae)
(§1) The active compounds were formulated in 50:50 acetone:water and 100 ppm Kinetic® surfactant.
Pepper plants in the 2nd leaf-pair stage (variety ‘California Wonder’) were infested with approximately 40 laboratory-reared aphids by placing infested leaf sections on top of the test plants. The leaf sections were removed after 24 hr. The leaves of the intact plants were dipped into gradient solutions of the test compound and allowed to dry. Test plants were maintained under fluorescent light (24 hour photoperiod) at about 25° C. and 20-40% relative humidity. Aphid mortality on the treated plants, relative to mortality on check plants, was determined after 5 days.

In assay [2] the test system is cotton aphids (Aphis gossypil). Put plainly: Cotton seed treatment, control of foliar aphids. It is filed as in vivo, Aphis gossypii. The conditions noted are these: live aphids counted four days after infestation, versus solvent blank controls. Here is the method:
Experimental compound no. 1 (N,N-Dimethyl-2-cyano-3-difluoromethoxyphenylsulfonamide) was evaluated to determine their insecticidal efficacy for control of foliar aphids when applied as seed treatment.
Experimental compound no. 1 was formulated by dissolving 10.5 mg technical material in 45 μl acetone then adding 255 μl 0.05% aqueous TWEEN 20 (polyoxyethylene (20) sorbitan monolaurate).
Twenty-five cotton seeds (variety Sure-Grow 747) were placed in a 20-ml glass vial and then 150 μl of the compound formulation were pipetted onto the side of the vial just above the seeds. Vials were vortexed for 30 seconds to rapidly spin the seeds within the vial to apply the compound to the seeds. Treated seeds were then air-dried. […]
Twenty-four cotton seeds were planted in Metro Mix potting mix in twelve 7.6-cm-square pots, 2 seeds per pot. Crop selectivity was determined by comparing seedling emergence and recording any foliar and shoot symptoms.
Seedling plants were thinned to one plant per pot. […] The exact number of aphids transferred to each plant was recorded.
Four days after infestation, live aphids on each plant were counted. The aphid population increase for each control plant was calculated by dividing the final aphid population by the initial population. The median aphid population increase on the solvent blank controls was then calculated. […]

The next assay deals with Bean Aphid (Aphis fabae). Put plainly: Bean Aphid plant dip test on nasturtium plants. Type of assay: in vivo. The settings on record: 72 h, nasturtium plants dipped, aphid mortality after 3 days, read-out: mortality in comparison with untreated controls.
From the text: as §1
Nasturtium plants grown in Metro mix in the 1st leaf-pair stage (variety ‘Mixed Jewel’) were infested with approximately 20-30 laboratory-reared aphids by placing infested cut plants on top of the test plants. The cut plants were removed after 24 hr. Each plant was dipped into the test solution to provide complete coverage of the foliage, stem, protruding seed surface and surrounding cube surface and allowed to dry in the fume hood. The treated plants were kept at about 25° C. with continuous fluorescent light. Aphid mortality is determined after 3 days.

Assay [3] deals with Cotton Aphid (Aphis gossypii). Put plainly: Cotton Aphid cotyledon dip test on cotton plants. It is filed as in vivo. The conditions noted are these: 120 h, cotton cotyledons dipped, mortality counts after 5 days, read-out: mortality in comparison with untreated controls.
From the text: Cotton Aphid (Aphis gossypii)
as §1
Cotton plants in the cotyledon stage (variety ‘Delta Pine’, one plant per pot) were infested by placing a heavily infested leaf from the main colony on top of each cotyledons. The aphids were allowed to transfer to the host plant overnight, and the leaf used to transfer the aphids was removed. The cotyledons were dipped in the test solution and allowed to dry. After 5 days, mortality counts were made.

What is called mortality is the percentage killed. With `CN(C)S(=O)(=O)c1cccc(OC(F)F)c1C#N` [Compound 1, N,N-Dimethyl-2-cyano-3-difluoromethoxyphenylsulfonamide], the mortality at 300 ppm (in assay [1]; in the assay with Bean Aphid (Aphis fabae); in assay [3]) was greater than 85% in each case. Besides, in assay [2], the “reduction of the aphid population” value is listed as “significant reduction of the aphid population”.
Turning to `COc1cccc(S(=O)(=O)N(C)C)c1C#N` [Compound 2, N,N-Dimethyl-2-cyano-3-methoxyphenylsulfonamide], the mortality at 300 ppm (in assay [1]; in the assay with Bean Aphid (Aphis fabae); in assay [3]) was greater than 85% each time.
